This note sets out measurements from patent publication US5643920A, “Tricyclic compound having anti-allergic activities” (Mochida Pharmaceutical Co., Ltd., priority 1992, dated 1997).

The first data set concerns mice. The experiment in a line: Acute toxicity, oral. It counts as in vivo. The settings on record: 1000 mg/kg oral, three mice per group, observed for 7 days. How it is done: To groups of three mice each having a body weight of 20 to 30 g were orally administered 1000 mg/kg of the compounds of Examples 15 and 117 of the present invention.
Consider `NN=C1CCn2c(-c3ccc(Cl)cc3)nc3cccc1c32` [Example 15, 2-(4-chlorophenyl)-4,5-dihydro-6H-imidazo-[4,5,1-ij]quinolin-6-one hydrazone], for which the “death within 7 days (acute toxicity)” value was “no mouse was found dead”.
Turning to `NN=C1CCc2c(-c3ccc(Cl)cc3)cn3cccc1c23` [Example 117, 1-(4-chlorophenyl)-8,9-dihydro-7H-pyrrolo-[3,2,1-ij]quinolin-7-one hydrazone], the “death within 7 days (acute toxicity)” value was “no mouse was found dead”.

Another data set deals with sensitized rat peritoneal cells (histamine release). The experiment in a line: Activity to suppress the histamine release from passively sensitized rat peritoneal cells. It counts as cell-based, male Wistar rats. The settings on record: 10 min, 1 μg/ml, 2×10^4 sensitized peritoneal cells, egg albumin, ten minutes, read-out: Percentage of the histamine release suppressed. On the procedure:
Peritoneal cells were collected from male Wistar rats (9 week-old) killed by exsanguination. The cells were washed by centrifugation, and passively sensitized with rat anti-egg albumin serum. 2×10^4 of the sensitized peritoneal cells (1×10^4 of the sensitized peritoneal cells in the case of the compound of Example 12) were reacted with the solution of the test compound (in 0.1% bovine serum albumin solution in HBSS (Hanks' balanced salt solution) containing 0.1% DMSO). Egg albumin was added as allergen, the reaction was allowed to take place for ten minutes. After the cease of the reaction, the amount of the histamine released was determined by post-column fluorometric assay using high-speed liquid chromatography.
The amount of the test compounds administered and the percentage of the histamine release suppressed calculated by equation 2 are shown in Table 2.
Example 123: 1-(4-chlorophenyl)-8,9-dihydro-7H-pyrrolo-[3,2,1-ij]quinolin-7-one tosylhydrazone. [formula]
For the molecule `NN=C1CCn2c(-c3ccc(Cl)cc3)nc3cccc1c32` [Example 15, 2-(4-chlorophenyl)-4,5-dihydro-6H-imidazo-[4,5,1-ij]quinolin-6-one hydrazone], the inhibition at 1 µg/mL came to 42%.

The data set is the same for the next values; noted with them: 10 min, 3 μg/ml, 2×10^4 sensitized peritoneal cells, egg albumin, ten minutes, read-out: Percentage of the histamine release suppressed.
For `Clc1ccc(-c2nc3cccc4c3n2CCC4=NNc2ccccc2)cc1` [Example 17, 2-(4-chlorophenyl)-4,5-dihydro-6H-imidazo-[4,5,1-ij]quinolin-6-one phenylhydrazone], the inhibition at 3 µg/mL was 40%.
Turning to `CC(C)=NN=C1CCn2c(-c3ccc(Cl)cc3)nc3cccc1c32` [Example 14, 2-(4-chlorophenyl)-4,5-dihydro-6H-imidazo-[4,5,1-ij]quinolin-6-one isopropylidenehydrazone], the inhibition at 3 µg/mL worked out at 55%.
Regarding `Cc1ccc(S(=O)(=O)NN=C2CCc3c(-c4ccc(Cl)cc4)cn4cccc2c34)cc1` [Example 123, 1-(4-chlorophenyl)-8,9-dihydro-7H-pyrrolo-[3,2,1-ij]quinolin-7-one tosylhydrazone], the inhibition at 3 µg/mL is 33%.
With `Clc1ccc(-c2cn3cccc4c3c2CCC4=NNc2ccccc2)cc1` [Example 119, 1-(4-chlorophenyl)-8,9-dihydro-7H-pyrrolo-[3,2,1-ij]quinolin-7-one phenylhydrazone], the inhibition at 3 µg/mL was determined as 42%.

Still in this data set, the particulars now being: 10 min, 10 μg/ml, 1×10^4 sensitized peritoneal cells (Example 12), egg albumin, ten minutes, read-out: Percentage of the histamine release suppressed.
For `OC1CCn2c(-c3ccc(Cl)cc3)nc3cccc1c32` (centres unmarked) [Example 12, 2-(4-chlorophenyl)-4,5-dihydro-6-hydroxy-6H-imidazo[4,5,1-ij]quinoline], the inhibition at 10 µg/mL worked out at 49%.

Still in this data set, the particulars now being: 10 min, 10 μg/ml, 2×10^4 sensitized peritoneal cells, egg albumin, ten minutes, read-out: Percentage of the histamine release suppressed.
On to `CCOC(=O)C(=O)NC1CCc2c(-c3ccc(Cl)cc3)cn3cccc1c23` (centres unmarked) [Example 122, 1-(4-chlorophenyl)-8,9-dihydro-7-ethoxyoxalylamino-7H-pyrrolo[3,2,1-ij]quinoline], for which the inhibition at 10 µg/mL turned out to be 98%.
For `NN=C1CCc2c(-c3ccc(Br)cc3)cn3cccc1c23` [Example 4, 1-(4-bromophenyl)-8,9-dihydro-7H-pyrrolo[3,2,1-ij]quinolin-7-one hydrazone], the inhibition at 10 µg/mL was determined as 50%.
As for `NN=C1CCc2c(-c3ccc(Cl)cc3)cn3cccc1c23` [Example 117, 1-(4-chlorophenyl)-8,9-dihydro-7H-pyrrolo-[3,2,1-ij]quinolin-7-one hydrazone], the inhibition at 10 µg/mL was determined as 47%.

In the next data set the test system is IgE antibody production. Put plainly: Activity to inhibit the IgE antibody production in mice sensitized with egg albumin (ELISA of plasma IgE). It counts as in vivo, male BALB/c mice. Conditions: Mus musculus, 240 h; 3 mg/kg/day, oral, once a day for seven times; blood ten days after sensitization; BALB/c mice; read-out: Percentage of the IgE antibody production inhibited. How it is done: Groups of five male BALB/c mice (body weight: 20 to 25 g) each were sensitized by intraperitoneally injection with 4 mg of aluminum hydroxide to which absorbed 10 μg of egg albumin. The test compound is suspended in a gum arabic solution, and the suspensions of different concentrations were orally administered to the animals once a day for seven times in total from immediately after the sensitization. The gum arabic suspension having no test compound added was used for the control.
Blood was collected from the animal ten days after the sensitization, and the collected blood was evaluated for the amount of the IgE antibody produced by ELISA. In brief, the plasma sample was added to immobilized anti-mouse igE antibody, and then, reacting with the anti-mouse IgE antibody having labeled with horseradish peroxidase. The amount of the IgE antibody produced was calculated by using the activity of the horseradish peroxidase for the index (See Meneki-to-Shikkan (Immune and Diseases), 15, 211-216, 1988).
In Table 1, there are shown the amount of the test compounds administered and the percentage of the IgE antibody production inhibited calculated by equation 1: [formula]
In the case of `Fc1ccc(-c2cn3cccc4c3c2CCC4)cc1` [Example 99, 8,9-dihydro-1-(4-fluorophenyl)-7H-pyrrolo-[3,2,1-ij]quinoline], the inhibition at 3 mg/kg came to 43%.
Same read-out and setting: then `Clc1ccc(-c2cn3cccc4c3c2CCC4)cc1` [Example 3, 1-(4-chlorophenyl) -8,9-dihydro-7H-pyrrolo-[3,2,1-ij]quinoline], with 64%.

The same data set, now with this note: Mus musculus, 240 h; 10 mg/kg/day, oral, once a day for seven times; blood ten days after sensitization; BALB/c mice; read-out: Percentage of the IgE antibody production inhibited.
`Brc1ccc(-c2cn3cccc4c3c2CCC4)cc1` [Example 100, 1-(4-bromophenyl)-8,9-dihydro-7H-pyrrolo-[3,2,1-ij]quinoline]: the inhibition at 10 mg/kg stood at 77%.
Take `c1ccc2cc(-c3cn4cccc5c4c3CCC5)ccc2c1` [Example 108, 8,9-dihydro-1-(2-naphthyl)-7H-pyrrolo[3,2,1-ij]quinoline]: the inhibition at 10 mg/kg came to 71%.
On to `C=C1CCc2c(-c3ccc(Cl)cc3)cn3cccc1c23` [Example 9, 1-(4-chlorophenyl)-8,9-dihydro-7-methylene-7H-pyrrolo[3,2,1-ij]quinoline], for which the inhibition at 10 mg/kg turned out to be 65%.
`NC1CCc2c(-c3ccc(Cl)cc3)cn3cccc1c23` (centres unmarked) [Example 7, 7-amino-1-(4-chlorophenyl)-8,9-dihydro-7H-pyrrolo[3,2,1-ij]quinoline]: the inhibition at 10 mg/kg was found to be 49%.
On the same count and under the same terms, with `Cc1ccc(-c2cn3cccc4c3c2CCC4)cc1` [Example 109, 8,9-dihydro-1-(4-methylphenyl)-7H-pyrrolo-[3,2,1-ij]quinoline] the figure was 45%.

Still in this data set, the particulars now being: Mus musculus, 240 h; 30 mg/kg/day, oral, once a day for seven times; blood ten days after sensitization; BALB/c mice; read-out: Percentage of the IgE antibody production inhibited.
Consider `NC1CCn2c(-c3ccc(C(F)(F)F)cc3)nc3cccc1c32` (centres unmarked) [Example 71, 6-amino-4,5-dihydro-2-(4-trifluoromethylphenyl)-imidazo[4,5,1-ij]quinoline], for which the inhibition at 30 mg/kg amounted to 78%.
Same read-out and setting: with `ON=C1CCc2c(-c3ccc(C(F)(F)F)cc3)cn3cccc1c23` [Example 92, 8,9-dihydro-1-(4-trifluoromethylphenyl)-7H-pyrrolo[3,2,1-ij]quinolin-7-oneoxi] the figure was 50%.
For `NC1CCc2c(-c3ccc(C(F)(F)F)cc3)cn3cccc1c23` (centres unmarked) [Example 132, 7-amino-8,9-dihydro-1-(4-trifluoromethylphenyl)-7H-pyrrolo[3,2,1-ij]quinoline], the inhibition at 30 mg/kg came to 80%.
The same measure, in the same setting: with `ON=C1CCn2c(-c3ccc(Br)cc3)nc3cccc1c32` [Reference Example 33, 2-(4-bromophenyl)-4,5-dihydro-6H-imidazo[4,5,1-ij]quinolin-6-one oxime] the figure was 41%; with `FC(F)(F)c1ccc(-c2cn3cccc4c3c2CCC4)cc1` [Example 130, 8,9-dihydro-1-(4-trifluoromethylphenyl)-7H-pyrrolo[3,2,1-ij]quinoline], 86%.
On to `ON=C1CCn2c(-c3ccccc3)nc3cccc1c32` [Reference Example 30, 2-phenyl-4,5-dihydro-6H-imidazo-[4,5,1-ij]quinolin-6-one oxime], for which the inhibition at 30 mg/kg amounted to 32%.
On to `CC(C)=NN=C1CCc2c(-c3ccc(Cl)cc3)cn3cccc1c23` [Example 124, 1-(4-chlorophenyl)-8,9-dihydro-7H-pyrrolo-[3,2,1-ij]quinolin-7-one isopropylidenehydrazone], for which the inhibition at 30 mg/kg was 45%.
For `NN=C1CCc2c(-c3ccc(Br)cc3)cn3cccc1c23` [Example 4, 1-(4-bromophenyl)-8,9-dihydro-7H-pyrrolo[3,2,1-ij]quinolin-7-one hydrazone], the inhibition at 30 mg/kg amounted to 47%.
On to `O=C1CCc2c(-c3ccc(C(F)(F)F)cc3)cn3cccc1c23` [Example 81, 8,9-dihydro-1-(4-trifluoromethylphenyl)-7H-pyrrolo[3,2,1-ij]quinolin-7-one], for which the inhibition at 30 mg/kg came to 61%.
`ON=C1CCn2c(-c3ccc(C(F)(F)F)cc3)nc3cccc1c32` [Reference Example 34, 2-(4-trifluoromethylphenyl)-4,5-dihydro-6H-imidazo[4,5,1-ij]quinolin-6-oneoxime]: the inhibition at 30 mg/kg amounted to 32%.
`ON=C1CCn2c(-c3ccc4ccccc4c3)nc3cccc1c32` [Reference Example 36, 2-(2-naphthyl)-4,5-dihydro-6H-imidazo[4,5,1-ij]quinolin-6-one oxime]: the inhibition at 30 mg/kg was 50%.
As for `NN=C1CCn2c(-c3ccc(Cl)cc3)nc3cccc1c32` [Example 15, 2-(4-chlorophenyl)-4,5-dihydro-6H-imidazo-[4,5,1-ij]quinolin-6-one hydrazone], the inhibition at 30 mg/kg was 53%.
The same measure, in the same setting: then `CON=C1CCn2c(-c3ccc(Cl)cc3)nc3cccc1c32` [Example 16, 2-(4-chlorophenyl)-4,5-dihydro-6-methoxyimino-6H-imidazo[4,5,1-ij]quinoline], with 54%; and `NN=C1CCc2c(-c3ccc(Cl)cc3)cn3cccc1c23` [Example 117, 1-(4-chlorophenyl)-8,9-dihydro-7H-pyrrolo-[3,2,1-ij]quinolin-7-one hydrazone], with 44%.
